Reference: US20240228463A1, “SODIUM CHANNEL INHIBITORS AND METHODS OF DESIGNING SAME” (Genentech, Inc., priority 2021, published 2024)
Where a name gives a salt, the structure may show the parent alone.

Biological target: T1, hNaV1.7 (Homo sapiens, UniProt Q15858)
T1 construct: expressed in transfected cells
Experiment: Patch voltage clamp electrophysiology (EP), Syncropatch 384PE, Nav1.7 in CHO cells;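 also: Nav1.7 stably expressed from cDNA in CHO cells, holding potential of −50 mV kept for the entire experiment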
Format: cell-based
Conditions: holding potential −50 mV, inhibition based on 7.5 min compound incubation, read-out: hNaV1.7 EP_SP

T1 sequence (Q15858 1-1977 isoform Q15858-3): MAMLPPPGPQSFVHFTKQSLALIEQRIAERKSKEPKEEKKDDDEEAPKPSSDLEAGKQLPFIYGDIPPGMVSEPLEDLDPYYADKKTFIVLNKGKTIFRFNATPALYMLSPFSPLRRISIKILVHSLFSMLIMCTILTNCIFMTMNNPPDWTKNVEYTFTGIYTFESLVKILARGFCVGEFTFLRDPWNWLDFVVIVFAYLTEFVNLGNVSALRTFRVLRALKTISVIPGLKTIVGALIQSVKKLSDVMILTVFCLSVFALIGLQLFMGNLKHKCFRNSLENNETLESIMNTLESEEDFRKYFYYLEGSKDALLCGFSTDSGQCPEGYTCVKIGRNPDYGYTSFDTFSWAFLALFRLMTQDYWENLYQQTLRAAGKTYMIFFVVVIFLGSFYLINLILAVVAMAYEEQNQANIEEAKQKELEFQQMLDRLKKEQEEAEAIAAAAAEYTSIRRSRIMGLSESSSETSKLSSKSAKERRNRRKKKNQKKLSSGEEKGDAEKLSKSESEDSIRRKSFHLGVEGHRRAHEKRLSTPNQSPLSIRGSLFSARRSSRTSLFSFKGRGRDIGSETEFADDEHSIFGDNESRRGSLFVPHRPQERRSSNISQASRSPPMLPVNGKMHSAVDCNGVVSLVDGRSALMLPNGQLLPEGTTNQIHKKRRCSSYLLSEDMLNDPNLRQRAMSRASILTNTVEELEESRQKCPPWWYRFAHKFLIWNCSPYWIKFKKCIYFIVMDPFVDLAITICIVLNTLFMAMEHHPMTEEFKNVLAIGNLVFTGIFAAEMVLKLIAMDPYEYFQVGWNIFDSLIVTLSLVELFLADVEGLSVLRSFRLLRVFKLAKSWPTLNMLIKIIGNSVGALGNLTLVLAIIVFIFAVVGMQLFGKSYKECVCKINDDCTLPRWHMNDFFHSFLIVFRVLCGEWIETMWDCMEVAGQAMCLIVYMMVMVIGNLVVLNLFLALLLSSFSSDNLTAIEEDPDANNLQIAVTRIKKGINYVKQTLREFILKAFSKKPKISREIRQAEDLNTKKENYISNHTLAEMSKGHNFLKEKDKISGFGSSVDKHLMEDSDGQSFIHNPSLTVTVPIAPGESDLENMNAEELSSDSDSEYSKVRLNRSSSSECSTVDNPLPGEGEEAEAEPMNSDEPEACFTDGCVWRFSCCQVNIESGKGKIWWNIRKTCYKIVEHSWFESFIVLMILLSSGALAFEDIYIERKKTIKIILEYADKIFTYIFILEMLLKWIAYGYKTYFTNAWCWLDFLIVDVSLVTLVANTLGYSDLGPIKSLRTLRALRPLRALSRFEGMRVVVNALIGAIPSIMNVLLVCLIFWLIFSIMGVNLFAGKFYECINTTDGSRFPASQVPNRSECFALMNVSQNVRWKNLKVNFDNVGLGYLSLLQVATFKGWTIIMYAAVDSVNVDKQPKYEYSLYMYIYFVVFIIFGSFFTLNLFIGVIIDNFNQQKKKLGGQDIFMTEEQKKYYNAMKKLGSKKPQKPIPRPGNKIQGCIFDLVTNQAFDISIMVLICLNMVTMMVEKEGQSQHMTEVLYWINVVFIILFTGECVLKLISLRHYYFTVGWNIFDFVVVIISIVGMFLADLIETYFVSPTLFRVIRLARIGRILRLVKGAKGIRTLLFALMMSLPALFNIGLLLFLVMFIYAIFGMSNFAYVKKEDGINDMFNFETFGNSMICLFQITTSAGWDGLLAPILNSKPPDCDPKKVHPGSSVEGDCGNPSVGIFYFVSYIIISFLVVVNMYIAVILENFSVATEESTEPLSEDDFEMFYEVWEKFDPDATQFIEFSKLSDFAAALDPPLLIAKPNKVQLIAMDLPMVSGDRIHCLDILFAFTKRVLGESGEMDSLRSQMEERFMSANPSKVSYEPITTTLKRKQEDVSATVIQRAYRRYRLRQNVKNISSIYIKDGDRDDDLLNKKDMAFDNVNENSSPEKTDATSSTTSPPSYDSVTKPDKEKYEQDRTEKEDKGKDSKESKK

Row | SMILES | IC50 [nM]
1 | COc1ccc(S(=O)(=O)NC(=O)c2cc(Cl)c(OCC3CCCC3)cc2F)cc1 [Example 81, 5-chloro-4-(cyclopentylmethoxy)-2-fluoro-N-((4-methoxyphenyl)sulfonyl)-benzamide] | 140
2 | CN1CC[C@H](OC2CCN(S(=O)(=O)NC(=O)c3cc(Cl)c(OCC4CCCC4)cc3F)CC2)C1 (single isomer, unassigned) [Example 326] | 230
3 | O=C(NS(=O)(=O)c1ccc(OCc2ccccc2)cc1)c1cc(Cl)c(OCC2CCCC2)cc1F [Example 294, N-((4-(benzyloxy)phenyl)sulfonyl)-5-chloro-4-(cyclopentylmethoxy)-2-fluorobenzamide] | 130
4 | O=C(NS(=O)(=O)c1ccc(OCc2ncccn2)cc1)c1cc(Cl)c(OCC2CCCC2)cc1F [Example 295, 5-chloro-4-(cyclopentylmethoxy)-2-fluoro-N-((4-(pyrimidin-2-ylmethoxy)phenyl)sulfonyl)benzamide] | 230
5 | O=C(NS(=O)(=O)c1ccc(OC(F)(F)F)cc1Cl)c1cc(Cl)c(OCC2CCCC2)cc1F [Example 293, 5-chloro-N-((2-chloro-4-(trifluoromethoxy)phenyl)sulfonyl)-4-(cyclopentylmethoxy)-2-fluorobenzamide] | 850
6 | NCC1CN(S(=O)(=O)NC(=O)c2cc(C3CC3)c(OCC3CCCC3)cc2F)CCO1 (stereo not drawn) [Example 330, N-((2-(aminomethyl)morpholino)sulfonyl)-4-(cyclopentylmethoxy)-5-cyclopropyl-2-fluorobenzamide] | 620
7 | O=C(NS(=O)(=O)c1ccc(OCc2ccccn2)cc1)c1cc(Cl)c(OCC2CCCC2)cc1F [Example 301, 5-chloro-4-(cyclopentylmethoxy)-2-fluoro-N-((4-(pyridin-2-ylmethoxy)phenyl)sulfonyl)benzamide] | 39
8 | O=C(NS(=O)(=O)c1ccc2ccccc2c1F)c1cc(Cl)c(OCC2CCCC2)cc1F [Example 278, 5-chloro-4-(cyclopentylmethoxy)-2-fluoro-N-((1-fluoronaphthalen-2-yl)sulfonyl)benzamide] | 960
9 | CN(C)[C@H]1CCCC[C@@H]1Nc1ccc(S(=O)(=O)NC(=O)c2cc(Cl)c(OCC3CCCC3)cc2F)cc1 [Example 64, 5-chloro-4-(cyclopentylmethoxy)-N-((4-(((1S,2S)-2-(dimethylamino)-cyclohexyl)amino)phenyl)sulfonyl)-2-fluorobenzamide formate] | 290
10 | C[C@@H]1Cc2ccccc2N(S(=O)(=O)NC(=O)c2cc(Cl)c(OCC3CCCC3)cc2F)C1 (single isomer, unassigned) [Example 17] | 100
11 | CN(C)C1CCCN(c2ccc(S(=O)(=O)NC(=O)c3cc(Cl)c(OCC4CCCC4)cc3F)cc2)C1 (single isomer, unassigned) [Example 209] | 110
12 | O=C(NS(=O)(=O)c1c(F)cc(N2CCCCC2)cc1F)c1cc(Cl)c(OCC2CCCC2)cc1F [Example 58, 5-chloro-4-(cyclopentylmethoxy)-N-((2,6-difluoro-4-(piperidin-1-yl)phenyl)-sulfonyl)-2-fluorobenzamide] | 320
13 | CN(C)[C@H]1CCCC[C@@H]1Nc1cc(F)c(S(=O)(=O)NC(=O)c2cc(Cl)c(OCC3CCCC3)cc2F)c(F)c1 [Example 206, 5-chloro-4-(cyclopentylmethoxy)-N-((4-(((1S,2S)-2-(dimethylamino)-cyclohexyl)amino)-2,6-difluorophenyl)sulfonyl)-2-fluorobenzamide] | 50
14 | Cc1ccc(COc2ccc(S(=O)(=O)NC(=O)c3cc(Cl)c(OCC4CCCC4)cc3F)cc2)cc1 [Example 313, 5-chloro-4-(cyclopentylmethoxy)-2-fluoro-N-((4-((4-methylbenzyl)oxy)phenyl)sulfonyl)benzamide] | 140
15 | O=S(=O)(Nc1noc2cc(OCC3CCCC3)c(Cl)cc12)N1CCC(O[C@H]2CCNC2)CC1 (single isomer, unassigned) [Example 90, 2,2,2-trifluoroacetate] | 400
16 | CN(C)[C@H]1CCCC[C@@H]1Nc1cc(F)c(S(=O)(=O)Nc2ccc(OCCCc3ccc(C(F)(F)F)cc3)cn2)cc1Cl [Example 103, 5-chloro-4-(((1S,2S)-2-(dimethylamino)cyclohexyl)amino)-2-fluoro-N-(5-(3-(4-(trifluoromethyl)phenyl)propoxy)pyridin-2-yl) benzenesulfonamide] | 220
17 | COc1ccc(COc2ccc(S(=O)(=O)NC(=O)c3cc(Cl)c(OCC4CCCC4)cc3F)cc2)cc1 [Example 309, 5-chloro-4-(cyclopentylmethoxy)-2-fluoro-N-((4-((4-methoxybenzyl)oxy)phenyl)sulfonyl)benzamide] | 120
18 | O=C(NS(=O)(=O)c1c(F)cccc1F)c1cc(Cl)c(OCC2CCCC2)cc1F [Example 79, 5-chloro-4-(cyclopentylmethoxy)-N-((2,6-difluorophenyl)sulfonyl)-2-fluorobenzamide] | 100
19 | CN(C)[C@H]1CCCC[C@@H]1Nc1ccc(S(=O)(=O)Nc2nc3ccc(OCC4CCCC4)c(Cl)c3s2)c(F)c1 [Example 333, N-(7-chloro-6-(cyclopentylmethoxy)benzo[d]thiazol-2-yl)-4-(((1S,2S)-2-(dimethylamino)cyclohexyl)amino)-2-fluorobenzenesulfonamide] | 65
20 | O=C(NS(=O)(=O)N1CCC(OC2CCCNC2)CC1)c1cc(Cl)c(OCC2CCCC2)cc1F (racemic) [Example 51, 5-chloro-4-(cyclopentylmethoxy)-2-fluoro-N-((4-(piperidin-3-yloxy)piperidin-1-yl)sulfonyl)benzamide 2,2,2-trifluoroacetate] | 68
21 | O=C(NS(=O)(=O)c1ccc(OC2CCNC2)cc1)c1cc(Cl)c(OCC2CCCC2)cc1F (stereo not drawn) [Example 325, 5-chloro-4-(cyclopentylmethoxy)-2-fluoro-N-((4-(pyrrolidin-3-yloxy)phenyl)sulfonyl)benzamide] | 240
22 | C[C@H]1Cc2ccccc2N(S(=O)(=O)NC(=O)c2cc(Cl)c(OCC3CCCC3)cc2F)C1 (single isomer, unassigned) [Example 16] | 240
23 | Cc1cc(C(=O)NS(=O)(=O)N2CCC(OC3CN(C)C3)CC2)c(F)cc1OCC1CCCC1 [Example 2, 4-(cyclopentylmethoxy)-2-fluoro-5-methyl-N-((4-((1-methylazetidin-3-yl)oxy)piperidin-1-yl)sulfonyl)benzamide] | 64

Further lines, results first:

Row | IC50 [nM] | SMILES
24 | 1000 | CN(C)C1CCN(S(=O)(=O)NC(=O)c2cc(Cl)c(OCC3CCCC3)cc2F)CC1 [Example 329, 5-chloro-4-(cyclopentylmethoxy)-N-((4-(dimethylamino)piperidin-1-yl)sulfonyl)-2-fluorobenzamide]
25 | 14 | CC[C@H](C)S(=O)(=O)NC(=O)c1cc(Cl)c(OCC2CCCC2)cc1F (single isomer, unassigned) [Example 254]
26 | 470 | CN1CCC(S(=O)(=O)NC(=O)c2cc(Cl)c(OCC3CCCC3)cc2F)C1 (stereo not drawn) [Example 323, 5-chloro-4-(cyclopentylmethoxy)-2-fluoro-N-((1-methylpyrrolidin-3-yl)sulfonyl)benzamide]
27 | 90 | NC[C@H]1CCCN(S(=O)(=O)NC(=O)c2cc(Cl)c(OCC3CCCC3)cc2F)C1 (single isomer, unassigned) [Example 27, 2,2,2-trifluoroacetate]
28 | 880 | NC[C@@H]1CCN(S(=O)(=O)NC(=O)c2cc(Cl)c(OCC3CCCC3)cc2F)C1 [Example 232, (S)—N-((3-(aminomethyl)pyrrolidin-1-yl)sulfonyl)-5-chloro-4-(cyclopentylmethoxy)-2-fluorobenzamide 2,2,2-trifluoroacetate]
29 | 230 | CN(C)C[C@@H]1CN(S(=O)(=O)NC(=O)c2cc(Cl)c(OCC3CCCC3)cc2F)CCO1 (single isomer, unassigned) [Example 28]
30 | 13 | O=C(NS(=O)(=O)C1CC12CCC2)c1cc(Cl)c(OCC2CCCC2)cc1F (stereo not drawn) [Example 256, 5-chloro-4-(cyclopentylmethoxy)-2-fluoro-N-(spiro[2.3]hexan-1-ylsulfonyl)benzamide]
31 | 63 | O=C(NS(=O)(=O)N1C[C@@H]2CC[C@@H](C2)C1)c1cc(Cl)c(OCC2CCCC2)cc1F [Example 230, N-(((1R,5S)-3-azabicyclo[3.2.1]octan-3-yl)sulfonyl)-5-chloro-4-(cyclopentylmethoxy)-2-fluorobenzamide]
32 | 10 | O=C(NS(=O)(=O)C1CC1)c1cc(Cl)c(OCC2CCCC2)cc1F [Example 328, 5-chloro-4-(cyclopentylmethoxy)-N-(cyclopropylsulfonyl)-2-fluorobenzamide]
33 | 760 | COC[C@H](C)S(=O)(=O)NC(=O)c1cc(Cl)c(OCC2CCCC2)cc1F (single isomer, unassigned) [Example 248]
34 | 750 | CNC1CN(S(=O)(=O)NC(=O)c2cc(Cl)c(OCC3CCCC3)cc2F)C1 [Example 226, 5-chloro-4-(cyclopentylmethoxy)-2-fluoro-N-((3-(methylamino)azetidin-1-yl)sulfonyl)benzamide formate]
35 | 87 | O=C(NS(=O)(=O)N1CC[C@H](OC2CCNCC2)C1)c1cc(Cl)c(OCC2CCCC2)cc1F (single isomer, unassigned) [Example 212]
36 | 12 | O=C(NS(=O)(=O)N1CCCC12CC2)c1cc(Cl)c(OCC2CCCC2)cc1F [Example 229, N-((4-azaspiro[2.4]heptan-4-yl)sulfonyl)-5-chloro-4-(cyclopentylmethoxy)-2-fluorobenzamide]
37 | 800 | O=C(NS(=O)(=O)c1ccc2c(c1)NCCC2)c1cc(Cl)c(OCC2CCCC2)cc1F [Example 267, 5-chloro-4-(cyclopentylmethoxy)-2-fluoro-N-((1,2,3,4-tetrahydroquinolin-7-yl)sulfonyl)benzamide]
38 | 16 | C[C@@H]1C[C@H]1S(=O)(=O)NC(=O)c1cc(Cl)c(OCC2CCCC2)cc1F (single isomer, unassigned) [Example 251]
39 | 49 | COC1CCN(S(=O)(=O)NC(=O)c2cc(Cl)c(OCC3CCCC3)cc2F)CC1 [Example 20, 5-chloro-4-(cyclopentylmethoxy)-2-fluoro-N-((4-methoxypiperidin-1-yl)sulfonyl)benzamide]
